The NIST ThermoML archive (doi:10.1021/je900888e)

Experiment: mn = molality of the nth substance listed, in mol/kg
Conditions: 101 kPa, Liquid; for speed of sound: Pulse-echo method

CCCC[P+](CCCC)(CCCC)CCCC.[Br-] [tetrabutylphosphonium bromide] + CCCCO
Conditions | mass density, 288.15 K [kg/m3] | mass density, 293.15 K [kg/m3] | mass density, 298.15 K [kg/m3] | mass density, 303.15 K [kg/m3] | mass density, 308.15 K [kg/m3] | mass density, 313.15 K [kg/m3] | mass density, 323.15 K [kg/m3] | speed of sound, 298.15 K [m/s]
m1 = 0.009722 | 813.972 | 810.179 | 806.37 | 802.533 | 798.665 | 794.76 | 786.817 | –
m1 = 0.01455 | 814.314 | 810.525 | 806.716 | 802.882 | 799.017 | 795.113 | 787.175 | –
m1 = 0.01936 | 814.655 | 810.867 | 807.061 | 803.227 | 799.366 | 795.464 | 787.531 | 1240.1
m1 = 0.0242 | 814.996 | 811.209 | 807.404 | 803.574 | 799.712 | 795.815 | 787.89 | –
m1 = 0.02918 | 815.348 | 811.563 | 807.767 | 803.93 | 800.07 | 796.175 | 788.253 | –
m1 = 0.0369 | 815.894 | 812.109 | 808.382 | 804.48 | 800.621 | 796.727 | 788.815 | 1241
m1 = 0.05364 | 817.07 | 813.293 | 809.495 | 805.673 | 801.825 | 797.943 | 790.046 | 1242
m1 = 0.07129 | 818.321 | 814.549 | 810.756 | 806.941 | 803.095 | 799.213 | 791.333 | 1243
m1 = 0.09251 | 819.818 | 816.049 | 812.265 | 808.455 | 804.62 | 800.743 | 792.887 | 1244.1
m1 = 0.1101 | 821.058 | 817.297 | 813.514 | 809.71 | 805.879 | 802.009 | 794.162 | 1245.1
m1 = 0.1395 | 823.126 | 819.37 | 815.598 | 811.804 | 807.981 | 804.127 | 796.295 | 1246.7
m1 = 0.1776 | 825.836 | 822.089 | 818.326 | 814.54 | 810.729 | 806.888 | 799.08 | 1248.8
m1 = 0.218 | 828.688 | 824.949 | 821.197 | 817.424 | 813.625 | 809.794 | 802.026 | 1251.1
m1 = 0.2537 | 831.238 | 827.51 | 823.765 | 820.001 | 816.21 | 812.388 | 804.641 | 1252.9
m1 = 0.2955 | 834.232 | 830.511 | 826.778 | 823.022 | 819.242 | 815.431 | 807.714 | 1255.3
m1 = 0.3323 | 836.873 | 833.16 | 829.434 | 825.687 | 821.922 | 818.127 | 810.433 | 1257.1

CCCC[P+](CCCC)(CCCC)CCCC.[Br-] [tetrabutylphosphonium bromide] + CCCO
Conditions | mass density, 288.15 K [kg/m3] | mass density, 293.15 K [kg/m3] | mass density, 298.15 K [kg/m3] | mass density, 303.15 K [kg/m3] | mass density, 308.15 K [kg/m3] | mass density, 313.15 K [kg/m3] | mass density, 323.15 K [kg/m3] | speed of sound, 298.15 K [m/s]
m1 = 0.008229 | 808.063 | 804.08 | 800.075 | 796.04 | 791.98 | 787.867 | 779.506 | –
m1 = 0.01006 | 808.2 | 804.217 | 800.212 | 796.179 | 792.12 | 788.009 | 779.649 | 1205.6
m1 = 0.01526 | 808.58 | 804.599 | 800.599 | 796.569 | 792.51 | 788.405 | 780.051 | –
m1 = 0.02043 | 808.96 | 804.977 | 800.981 | 796.957 | 792.896 | 788.788 | 780.443 | –
m1 = 0.02524 | 809.318 | 805.33 | 801.34 | 797.315 | 793.259 | 789.158 | 780.808 | 1206.6
m1 = 0.03024 | 809.68 | 805.698 | 801.705 | 797.688 | 793.626 | 789.53 | 781.191 | –
m1 = 0.03749 | 810.212 | 806.23 | 802.24 | 798.225 | 794.174 | 790.075 | 781.741 | –
m1 = 0.05294 | 811.322 | 807.354 | 803.369 | 799.354 | 795.307 | 791.221 | 782.905 | 1208.6
m1 = 0.06813 | 812.403 | 808.443 | 804.463 | 800.458 | 796.411 | 792.34 | 784.043 | 1209.5
m1 = 0.0867 | 813.75 | 809.793 | 805.818 | 801.819 | 797.792 | 793.72 | 785.44 | 1210.8
m1 = 0.1076 | 815.247 | 811.298 | 807.331 | 803.338 | 799.313 | 795.248 | 786.995 | 1212.2
m1 = 0.1375 | 817.423 | 813.485 | 809.531 | 805.541 | 801.524 | 797.479 | 789.244 | 1213.9
m1 = 0.1743 | 820.087 | 816.159 | 812.214 | 808.243 | 804.242 | 800.208 | 792.006 | 1216.2
m1 = 0.2115 | 822.781 | 818.864 | 814.928 | 810.97 | 806.982 | 802.96 | 794.787 | 1218.4
m1 = 0.2447 | 825.209 | 821.3 | 817.377 | 813.431 | 809.45 | 805.445 | 797.302 | 1220.7
m1 = 0.2873 | 828.335 | 824.437 | 820.523 | 816.588 | 812.63 | 808.638 | 800.526 | 1223.5
m1 = 0.3248 | 831.089 | 827.205 | 823.305 | 819.382 | 815.432 | 811.451 | 803.369 | 1225.7
